ChEMBL document CHEMBL5214948, “Boronic Acid: A Novel Pharmacophore Targeting Src Homology 2 (SH2) Domain of STAT3” (J Med Chem, 2022)
Calls of active or inactive are those of the source.

Key:
[1] = system: MGC-803; assay: Antitumor activity against human MGC-803 cells xenografted in BALB/c nude mouse assessed as reduction in tumor progression at 5 mg/kg, ip measured every day for 20 days by immunohistochemical analysis; type: functional, organism-based; settings: time 20.0 day
[2] = system: MGC-803; assay: Antitumor activity against human MGC-803 cells xenografted in BALB/c nude mouse assessed as reduction in tumor cells at 5 mg/kg, ip measured every day for 20 days by immunohistochemical analysis; type: functional, organism-based; settings: time 20.0 day
[3] = system: MGC-803; assay: Induction of apoptosis in human MGC-803 cells at 5 uM incubated for 72 hrs by V-FITC/PI staining based flow cytometry assay; type: functional
[4] = system: MGC-803; assay: Antitumor activity against human MGC-803 cells xenografted in BALB/c nude mouse assessed as reduction in phosphorylated STAT3 at Y705 residue at 15 mg/kg, ip measured every day for 20 days by immunohistochemical analysis; type: functional, organism-based; settings: time 20.0 day
[5] = Cmax in ICR mouse at 5 mg/kg, iv measured upto 24 hrs by LC-MS/MS analysis; type: ADME, organism-based; design: time < 24 hrs, dose 5 mg/kg, route iv; settings: in vivo
[6] = system: MGC-803; assay: Antitumor activity against human MGC-803 cells xenografted in BALB/c nude mouse assessed as reduction in tumor progression at 15 mg/kg, ip measured every day for 20 days by immunohistochemical analysis; type: functional, organism-based; settings: time 20.0 day
[7] = in vivo; type: ADME, organism-based; settings: ICR, mouse, iv, 5 mg/kg
[8] = molecular target: T1, Signal transducer and activator of transcription 3 (Homo sapiens, UniProt P40763); assay: Inhibition of STAT3 phosphorylation at Tyr705 residue in human MGC-803 cells incubated for 24 hrs by Western blot analysis; type: cell-based; settings: dose 3-5 µM, DDE = dose-dependent effect
[9] = Toxicity in BALB/c nude mouse xenografted with MGC-803 cells assessed as effect on body weight at 5 mg/kg, ip measured every day for 20 days; type: organism-based; settings: in vivo, 480 h, time 20 day
[10] = Toxicity in nude BALB/c nude mouse xenografted with human MGC-803 cells assessed as morphological changes in liver at 5 to 15 mg/kg, ip measured every day for 20 days by H and E staining based assay; type: organism-based; settings: in vivo, 480 h, time 20 day
[11] = molecular target: T1, Signal transducer and activator of transcription 3; assay: Binding affinity to full length wild type STAT3-SH2 domain (unknown origin) in human MGC-803 cells assessed as thermal stabilization of protein at 37 to 53 degreeC at 5 uM incubated for 3 hrs by cellular thermal shift assay; type: cell-based
[12] = system: AGS; assay: Antiproliferative activity against human AGS cells assessed as reduction in cell viability at 1 to 3 uM incubated for 72 hrs by Edu incorporation assay; type: functional, cell-based; settings: dose 1-3 µM
[13] = Toxicity in nude BALB/c nude mouse xenografted with human MGC-803 cells assessed as morphological changes in kidney at 5 to 15 mg/kg, ip measured every day for 20 days by H and E staining based assay; type: organism-based; settings: in vivo, 480 h, time 20 day
[14] = molecular target: T1, Signal transducer and activator of transcription 3; assay: Inhibition of STAT3 transcriptional activity in human MGC-803 cells assessed as downregulation of Bcl-xL protein expression at 3 to 5 uM incubated for 24 hrs by Western blot analysis; type: cell-based; settings: dose 3-5 µM
[15] = system: MGC-803; assay: Antitumor activity against human MGC-803 cells xenografted in BALB/c nude mouse assessed as reduction in Bcl-xL expression at 5 mg/kg, ip measured every day for 20 days by immunohistochemical analysis; type: functional, organism-based; settings: time 20.0 day
[16] = Toxicity in BALB/c nude mouse xenografted with MGC-803 cells assessed as effect on body weight at 15 mg/kg, ip measured every day for 20 days; type: organism-based; settings: in vivo, 480 h, time 20 day
[17] = Toxicity in nude BALB/c nude mouse xenografted with human MGC-803 cells assessed as morphological changes in lung at 5 to 15 mg/kg, ip measured every day for 20 days by H and E staining based assay; type: organism-based; settings: in vivo, 480 h, time 20 day
[18] = system: AGS; assay: Antiproliferative activity against human AGS cells assessed as reduction in cell viability incubated for 72 hrs by CCK-8 assay; type: functional, cell-based
[19] = system: MGC-803; assay: Antitumor activity against human MGC-803 cells xenografted in BALB/c nude mouse assessed as reduction in Ki67 expression at 15 mg/kg, ip measured every day for 20 days by immunohistochemical analysis; type: functional, organism-based; settings: time 20.0 day
[20] = system: MGC-803; assay: Antitumor activity against human MGC-803 cells xenografted in BALB/c nude mouse assessed as reduction in tumor cells at 15 mg/kg, ip measured every day for 20 days by immunohistochemical analysis; type: functional, organism-based; settings: time 20.0 day
[21] = system: AGS; assay: Induction of apoptosis in human AGS cells at 3 uM incubated for 72 hrs by V-FITC/PI staining based flow cytometry assay; type: functional
[22] = system: MGC-803; assay: Antitumor activity against human MGC-803 cells xenografted in BALB/c nude mouse assessed as reduction in phosphorylated STAT3 at Y705 residue at 5 mg/kg, ip measured every day for 20 days by immunohistochemical analysis; type: functional, organism-based; settings: time 20.0 day
[23] = system: MGC-803; assay: Antiproliferative activity against human MGC-803 cells assessed as reduction in cell viability at 3 to 5 uM incubated for 72 hrs by Edu incorporation assay; type: functional, cell-based; settings: dose 3-5 µM
[24] = system: MGC-803; assay: Inhibition of cell invasion in human MGC-803 cells measured after 24 hrs by crystal violet staining based imaging transwell assay; type: functional; settings: DDE = dose-dependent effect
[25] = molecular target: T1, Signal transducer and activator of transcription 3; assay: Binding affinity to full length wild type STAT3-SH2 domain (unknown origin) assessed as equilibrium dissociation constant by SPR analysis
[26] = Clearance in ICR mouse at 5 mg/kg, iv measured upto 24 hrs by LC-MS/MS analysis; type: ADME, organism-based; settings: in vivo
[27] = system: MGC-803; assay: Inhibition of colony formation in human MGC-803 cells at 1 uM incubated for 10 to 15 days by crystal violet staining based assay; type: functional, cell-based; settings: time 10-15 day

T1 sequence (P40763 whole entry): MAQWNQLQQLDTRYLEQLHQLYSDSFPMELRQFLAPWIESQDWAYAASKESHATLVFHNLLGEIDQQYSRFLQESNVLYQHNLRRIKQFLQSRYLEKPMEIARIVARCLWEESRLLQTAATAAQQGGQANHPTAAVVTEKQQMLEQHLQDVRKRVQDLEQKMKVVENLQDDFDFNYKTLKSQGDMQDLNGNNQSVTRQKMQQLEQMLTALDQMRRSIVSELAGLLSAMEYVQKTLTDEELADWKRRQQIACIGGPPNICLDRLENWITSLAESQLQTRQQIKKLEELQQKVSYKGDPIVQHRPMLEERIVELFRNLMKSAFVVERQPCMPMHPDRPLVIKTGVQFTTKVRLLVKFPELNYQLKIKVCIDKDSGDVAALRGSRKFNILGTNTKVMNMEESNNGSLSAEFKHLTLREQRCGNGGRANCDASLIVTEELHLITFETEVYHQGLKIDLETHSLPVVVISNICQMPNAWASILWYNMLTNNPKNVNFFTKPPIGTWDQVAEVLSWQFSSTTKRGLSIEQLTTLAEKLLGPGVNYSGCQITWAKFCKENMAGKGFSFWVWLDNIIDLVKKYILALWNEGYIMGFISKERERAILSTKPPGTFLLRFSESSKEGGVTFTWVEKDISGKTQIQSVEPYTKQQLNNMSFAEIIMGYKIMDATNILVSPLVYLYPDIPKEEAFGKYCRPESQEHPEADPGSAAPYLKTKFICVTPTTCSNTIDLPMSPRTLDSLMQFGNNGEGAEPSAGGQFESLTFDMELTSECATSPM

CN(CC(=O)N(Cc1ccc(C2CCCCC2)cc1)c1ccc(B(O)O)cc1)S(=O)(=O)c1c(F)c(F)c(F)c(F)c1F
176 mL/min/kg: clearance [26]
26.7%: Activity [21]
active: Activity [1] | Activity [2] | Activity [4] | Activity [6] | inhibition [8] Dde | Activity [11] | Activity [12] | inhibition [14] | Activity [15] | Activity [19] | Activity [20] | Activity [22] | Activity [23] | inhibition [24] Dde | inhibition [27]
1500 ng/mL: Cmax [5]
5.02 µM: Kd [25]
Non-Toxic: Activity [9] | Activity [10] | Activity [13] | Activity [16] | Activity [17]
490 ng·h/mL: AUC(0-inf) at 24 h [7]
11.2%: Activity [3]
1.54 µM: IC50 [18]
